Reference: patent US20060069132A1, “Azolecarboxamide herbicides” (priority 2004, published 2006)

Assays:
large crabgrass [1] = assay: Test B pre-/postemergence herbicide test; type: in vivo, Digitaria sanguinalis; conditions: for Crabgrass, Large plant response rating: postemergence
In short: (§1)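 Response was scored visually 13 to 15 days after treatment against untreated greenhouse controls, 0 meaning no effect and 100 complete control. Formulations (solvent mixture plus surfactant) went onto soil after planting, onto foliage of 1- to 4-leaf plants, and onto 2-leaf plants in a flooded paddy set including rice and barnyardgrass.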

rice [2] = assay: Test B pre-/postemergence herbicide test; type: in vivo, Oryza sativa; conditions: preemergence
In short: as §1

giant foxtail [3] = assay: Test A pre-/postemergence herbicide test; type: in vivo, Setaria faberi
In short: (§2)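 Pre: seeded sandy loam, directed soil spray, compound in non-phytotoxic solvent + surfactant. Post: 1–2-leaf plants (2–10 cm), sprayed to runoff. Greenhouse ~10 d; visual injury vs untreated, 0–100 scale.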

Surinam grass = assay: Test B pre-/postemergence herbicide test; type: in vivo, Urochloa decumbens; conditions: for Surinam Grass plant response rating: postemergence
In short: as §1

wheat = assay: Test B postemergence herbicide test; type: in vivo, Triticum aestivum; set-up: key to Wheat plant response rating: 0 = no effect, 100 = complete control; conditions: postemergence
In short: (§3)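 Greenhouse test; postemergence application to plants at 1–4 leaves (2–18 cm); paddy species at 2 leaves; evaluated visually vs controls at 13–15 days; scale 0–100 (100 = complete control).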

corn = assay: Test B pre-/postemergence herbicide test; type: in vivo, Zea mays; conditions: for Corn plant response rating: postemergence
In short: as §1

giant foxtail [4] = assay: Test B pre-/postemergence herbicide test; type: in vivo, Setaria faberi; conditions: for Foxtail, Giant plant response rating: postemergence
In short: as §1

ducksalad = assay: Test B flooded paddy test; type: in vivo, Heteranthera limosa; conditions: 1000 g ai/ha, scale 0 to 100 (0 no effect, 100 complete control)
In short: (§4)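 Read-out: visual comparison with controls, scored 0 to 100, where 100 means complete control and 0 no effect. Formulated chemicals were applied postemergence to plants 2–18 cm tall (1- to 4-leaf), or to flooded-paddy plants at the 2-leaf stage, then held 13 to 15 days under glass.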

wild oat = assay: Test B postemergence herbicide test; type: in vivo, Avena fatua; conditions: postemergence
In short: as §3

barnyardgrass [5] = assay: Test B pre-/postemergence herbicide test; type: in vivo, Echinochloa crus-galli; conditions: for Barnyardgrass plant response rating: postemergence
In short: (§5)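 Pre: seeds sown, then sprayed. Post: 1–4-leaf plants (2–18 cm) sprayed at the same time. Paddy: flooded, treated at 2-leaf stage. Formulation: non-phytotoxic solvent with surfactant. Greenhouse 13–15 days; visual 0–100 score relative to controls.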

morningglory [6] = assay: Test A pre-/postemergence herbicide test; type: in vivo, Ipomoea spp.
In short: as §2

morningglory [7] = assay: Test B pre-/postemergence herbicide test; type: in vivo, Ipomoea coccinea; conditions: for Morningglory plant response rating: postemergence
In short: as §5

cocklebur = assay: Test B pre-/postemergence herbicide test; type: in vivo, Xanthium strumarium; conditions: for Cocklebur plant response rating: postemergence
In short: as §5

pigweed = assay: Test B pre-/postemergence herbicide test; type: in vivo, Amaranthus retroflexus; conditions: for Pigweed plant response rating: postemergence
In short: as §1

lambsquarters = assay: Test B pre-/postemergence herbicide test; type: in vivo, Chenopodium album; conditions: for Lambsquarters plant response rating: postemergence
In short: as §1

large crabgrass [8] = assay: Test A pre-/postemergence herbicide test; type: in vivo, Digitaria sanguinalis
In short: as §2

redroot pigweed = assay: Test A pre-/postemergence herbicide test; type: in vivo, Amaranthus retroflexus
In short: as §2

barnyardgrass [9] = assay: Test A pre-/postemergence herbicide test; type: in vivo, Echinochloa crus-galli
In short: as §2

blackgrass = assay: Test B postemergence herbicide test; type: in vivo, Alopecurus myosuroides; conditions: postemergence
In short: as §4

velvetleaf [10] = assay: Test B pre-/postemergence herbicide test; type: in vivo, Abutilon theophrasti; conditions: for Velvetleaf plant response rating: postemergence
In short: as §1

velvetleaf [11] = assay: Test A pre-/postemergence herbicide test; type: in vivo, Abutilon theophrasti
In short: as §2

rice [12] = assay: Test B flooded paddy test; type: in vivo, Oryza sativa; conditions: 1000 g ai/ha, scale 0 to 100 (0 no effect, 100 complete control)
In short: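 Postemergence plants were sprayed with formulated test chemicals at 2 to 18 cm height (1- to 4-leaf stage); paddy species were grown to the 2-leaf stage. After 13 to 15 days in a greenhouse, injury was rated visually against untreated controls on a 0–100 scale (0 = no effect, 100 = complete control).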

barnyardgrass [13] = assay: Test B flooded paddy test; type: in vivo, Echinochloa crus-galli; conditions: 1000 g ai/ha, scale 0 to 100 (0 no effect, 100 complete control)
In short: as §4

[14] = tested on: small flower umbrella sedge; assay: Test B flooded paddy test; type: in vivo, Cyperus difformis; conditions: 1000 g ai/ha, scale 0 to 100 (0 no effect, 100 complete control)
In short: as §4

[15] = 125 g ai/ha, 0 is no effect, 100 is complete control, preemergence
[16] = 125 g ai/ha, visual rating, scale 0 (no effect) to 100 (complete control)
[17] = 500 g ai/ha, visual rating, 0 = no effect, 100 = complete control, preemergence
[18] = 500 g ai/ha, scale 0 to 100, 0 is no effect, 100 is complete control
[19] = Postemergence, 500 g ai/ha, 0 to 100 scale, 0 no effect, 100 complete control
[20] = Postemergence, 2000 g ai/ha, 0 to 100 scale, 0 no effect, 100 complete control
[21] = Preemergence, 2000 g ai/ha, visual rating, 0 to 100 scale (0 no effect, 100 complete control)
[22] = preemergence, 500 g ai/ha, visual injury, 0 to 100 scale (0 no effect, 100 complete control)

CCSCNC(=O)c1cccc(NC(=O)c2cc(C(C)(C)C)nn2CC)c1 [Compound 329]
30: Wheat plant response rating (wheat; [18]) | Foxtail, Giant plant response rating (giant foxtail [4]; [18]) | Oat, Wild plant response rating (wild oat; [18]) | Cocklebur plant response rating (cocklebur; [18]) | Lambsquarters plant response rating (lambsquarters; [16]) | Velvetleaf plant response rating (velvetleaf [10]; [18])
50: Pigweed plant response rating (pigweed; [16])
10: Crabgrass, Large plant response rating (large crabgrass [1]; [18]) | Foxtail, Giant plant response rating (giant foxtail [3]; [19]) | Surinam Grass plant response rating (Surinam grass; [16]) | Foxtail, Giant plant response rating (giant foxtail [4]; [16]) | Barnyardgrass plant response rating (barnyardgrass [5]; [18]) | Morningglory plant response rating (morningglory [6]; [19]) | Morningglory plant response rating (morningglory [6]; [21]) | Crabgrass, Large plant response rating (large crabgrass [8]; [19]) | Pigweed plant response rating (redroot pigweed; [19]) | Pigweed plant response rating (redroot pigweed; [21]) | Velvetleaf plant response rating (velvetleaf [10]; [16]) | Velvetleaf plant response rating (velvetleaf [11]; [19]) | Velvetleaf plant response rating (velvetleaf [11]; [21])
70: Lambsquarters plant response rating (lambsquarters; [18])
45: Plant response rating, Pigweed (redroot pigweed; [20])
15: Barnyardgrass plant response rating (barnyardgrass [9]; [19])
80: Pigweed plant response rating (pigweed; [18])
5: Foxtail, Giant plant response rating (giant foxtail [3]; [21]) | Plant response rating, Crabgrass, Large (large crabgrass [8]; [20]) | Pigweed plant response rating (redroot pigweed; [22]) | Barnyardgrass plant response rating (barnyardgrass [9]; [21])
20: Plant response rating, Foxtail, Giant (giant foxtail [3]; [20]) | Surinam Grass plant response rating (Surinam grass; [18]) | Wheat plant response rating (wheat; [16]) | Corn plant response rating (corn; [18]) | Oat, Wild plant response rating (wild oat; [16]) | Plant response rating, Morningglory (morningglory [6]; [20]) | Morningglory plant response rating (morningglory [7]; [18]) | Plant response rating, Barnyardgrass (barnyardgrass [9]; [20]) | Blackgrass plant response rating (blackgrass; [16]) | Blackgrass plant response rating (blackgrass; [18])
0: Plant response rating (0 to 100 scale), Crabgrass, Large (large crabgrass [1]; [15]) | Crabgrass, Large plant response rating (large crabgrass [1]; [16]) | Plant response rating, Crabgrass, Large (large crabgrass [1]; [17]) | Plant response rating (0 to 100 scale), Rice (rice [2]; 125 g ai/ha, 0 is no effect, 100 is complete control) | Plant response rating, Rice (rice [2]; 500 g ai/ha, visual rating, 0 = no effect, 100 = complete control) | Foxtail, Giant plant response rating (giant foxtail [3]; [22]) | Plant response rating (0 to 100 scale), Surinam Grass (Surinam grass; [15]) | Plant response rating, Surinam Grass (Surinam grass; [17]) | Plant response rating (0 to 100 scale), Corn (corn; [15]) | Corn plant response rating (corn; [16]) | Plant response rating, Corn (corn; [17]) | Plant response rating (0 to 100 scale), Foxtail, Giant (giant foxtail [4]; [15]) | Plant response rating, Foxtail, Giant (giant foxtail [4]; [17]) | Ducksalad plant response rating (ducksalad) | Plant response rating (0 to 100 scale), Barnyardgrass (barnyardgrass [5]; [15]) | Barnyardgrass plant response rating (barnyardgrass [5]; [16]) | Plant response rating, Barnyardgrass (barnyardgrass [5]; [17]) | Morningglory plant response rating (morningglory [6]; [22]) | Plant response rating (0 to 100 scale), Morningglory (morningglory [7]; [15]) | Morningglory plant response rating (morningglory [7]; [16]) | Plant response rating, Morningglory (morningglory [7]; [17]) | Plant response rating (0 to 100 scale), Cocklebur (cocklebur; [15]) | Cocklebur plant response rating (cocklebur; [16]) | Plant response rating, Cocklebur (cocklebur; [17]) | Plant response rating (0 to 100 scale), Pigweed (pigweed; [15]) | Plant response rating, Pigweed (pigweed; [17]) | Plant response rating (0 to 100 scale), Lambsquarters (lambsquarters; [15]) | Crabgrass, Large plant response rating (large crabgrass [8]; [21]) | Crabgrass, Large plant response rating (large crabgrass [8]; [22]) | Barnyardgrass plant response rating (barnyardgrass [9]; [22]) | Plant response rating (0 to 100 scale), Velvetleaf (velvetleaf [10]; [15]) | Plant response rating, Velvetleaf (velvetleaf [10]; [17]) | Velvetleaf plant response rating (velvetleaf [11]; [22]) | Rice plant response rating (rice [12]) | Barnyardgrass plant response rating (barnyardgrass [13]) | Sedge, Umbrella plant response rating [14]
25: Plant response rating, Velvetleaf (velvetleaf [11]; [20])
